# Reference: patent US10988485B2 (Amgen Inc., priority 2018, dated 2021)
# Biological target: GDP-bound KRAS protein (aa 1-169), containing both G12C and C118A amino acid substitutions (Homo sapiens, UniProt P01116, C118A/G12C)
# Assay: Coupled Nucleotide Exchange Assay (SOS-mediated nucleotide exchange, AlphaScreen)
# Assay type: biochemical
# Details: compound pre-incubation either 5 min or 2 hours (not stated per compound); SOS and GTP added, cRAF AlphaScreen read-out
# Method: For compounds in Table 6, the following assay conditions were employed:
# Coupled Nucleotide Exchange Assay: Purified GDP-bound KRAS protein (aa 1-169), containing both G12C and C118A amino acid substitutions and an N-terminal His-tag, was pre-incubated in assay buffer (25 mM HEPES pH 7.4, 10 mM MgCl2, and 0.01% Triton X-100) with a compound dose-response titration for either 5 min or 2 hours (see Table 15). Following compound pre-incubation, purified SOS protein (aa 564-1049) and GTP (Roche 10106399001) were added to the assay wells and incubated for an additional 30 min (for 5 min compound pre-incubation) or 1 hour (for 2 hour compound pre-incubation). To determine the extent of inhibition of SOS-mediated nucleotide exchange, purified GST-tagged cRAF (aa 1-149), nickel chelate AlphaLISA acceptor beads (PerkinElmer AL108R), and AlphaScreen glutathione donor beads (PerkinElmer 6765302) were added to the assay wells and incubated for 10 minutes. The assay plates were then read on a PerkinElmer EnVision Multilabel Reader, using AlphaScreen® technology, and data were analyzed using a 4-parameter logistic model to calculate IC50 values.
# Chain of GDP-bound KRAS protein (aa 1-169), containing both G12C and C118A amino acid substitutions (P01116 1-169 isoform P01116-2 G12C/C118A): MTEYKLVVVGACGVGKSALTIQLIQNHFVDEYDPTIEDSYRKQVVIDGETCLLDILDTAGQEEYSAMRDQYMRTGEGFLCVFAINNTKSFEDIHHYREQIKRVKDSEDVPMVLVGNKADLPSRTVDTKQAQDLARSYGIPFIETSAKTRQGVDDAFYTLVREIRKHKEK
row,Compound,IC50
1,"C=CC(=O)N1C[C@H](C)N(C2=NS(=O)(=O)N(c3ccc(CN(C)C)cc3C(C)(C)C)c3nc(-c4ccccc4F)c(Cl)cc32)C[C@H]1C [Example 1-13-2, 1-((2R,5S)-4-(6-chloro-1-(4-((dimethylamino)methyl)-2-(2-methyl-2-propanyl)phenyl)-7-(2-fluorophenyl)-2,2-dioxido-1H-pyrido[2,3-c][1,2,6]thiadiazin-4-yl)-2,5-dimethyl-1-piperazinyl)-2-propen-1-one]",3870 nM
2,"C=CC(=O)N1C[C@H](C)N(C2=NS(=O)(=O)N(c3c(C)cc(N)nc3C(C)C)c3nc(-c4ccccc4F)c(Cl)cc32)C[C@H]1C (atropisomer, axis not shown) [Example 10, 1-((2R,5S)-4-(1-(6-Amino-4-methyl-2-(2-propanyl)-3-pyridinyl)-6-chloro-7-(2-fluorophenyl)-2,2-dioxido-1H-pyrido[2,3-c][1,2,6]thiadiazin-4-yl)-2,5-dimethyl-1-piperazinyl)-2-propen-1-one]",1270 nM
3,"C=CC(=O)N1C[C@H](C)N(C2=NS(=O)(=O)N(c3c(C)cnn3C(C)C)c3nc(-c4ccccc4F)c(Cl)cc32)C[C@H]1C (single isomer, unassigned) [Example 1-11-1]",540 nM
4,"C=CC(=O)N1C[C@H](C)N(C2=NS(=O)(=O)N(c3ccccc3C(C)(C)C)c3nc(-c4ccccc4S(C)(=O)=O)c(Cl)cc32)C[C@H]1C (atropisomer, axis not shown) [Example 1-10-2]",5950 nM
5,"C=CC(=O)N1C[C@H](C)N(C2=NS(=O)(=O)N(c3ccccc3C(C)(C)C)c3nc(-c4ccccc4F)c(Cl)cc32)C[C@H]1C [Example 1-1-2, 1-((2R,5S)-4-(6-chloro-7-(2-fluorophenyl)-1-(2-(2-methyl-2-propanyl)phenyl)-2,2-dioxido-1H-pyrido[2,3-c][1,2,6]thiadiazin-4-yl)-2,5-dimethyl-1-piperazinyl)-2-propen-1-one]",70800 nM
6,"C=CC(=O)N1C[C@H](C)N(C2=NS(=O)(=O)N(c3c(CC)cccc3CC)c3nc(-c4c(N)cccc4F)c(Cl)cc32)C[C@H]1C [Example 1-7, 1-((2R,5S)-4-(7-(2-amino-6-fluorophenyl)-6-chloro-1-(2,6-diethylphenyl)-2,2-dioxido-1H-pyrido[2,3-c][1,2,6]thiadiazin-4-yl)-2,5-dimethyl-1-piperazinyl)-2-propen-1-one]",890 nM
7,"C=CC(=O)N1C[C@H](C)N(C2=NS(=O)(=O)N(c3c(C)cc(CN(C)C)nc3C(C)C)c3nc(-c4ccccc4F)c(Cl)cc32)C[C@H]1C [Example 4, 1-((2R,5S)-4-(6-Chloro-1-(6-((dimethylamino)methyl)-4-methyl-2-(2-propanyl)-3-pyridinyl)-7-(2-fluorophenyl)-2,2-dioxido-1H-pyrido[2,3-c][1,2,6]thiadiazin-4-yl)-2,5-dimethyl-1-piperazinyl)-2-propen-1-one]",5960 nM
8,"C=CC(=O)N1CCN(C2=NS(=O)(=O)N(c3c(C)ccnc3C(C)C)c3nc(-c4ccccc4F)c(Cl)cc32)[C@@H](C)C1 [Example 2-2, (S)-1-(4-(6-chloro-7-(2-fluorophenyl)-1-(2-isopropyl-4-methylpyridin-3-yl)-2,2-dioxido-1H-pyrido[2,3-c][1,2,6]thiadiazin-4-yl)-3-methylpiperazin-1-yl)prop-2-en-1-one]",530 nM
9,"C=CC(=O)N1C[C@H](C)N(C2=NS(=O)(=O)N(c3ccccc3C(C)(C)C)c3nc(-c4c(N)cccc4F)c(Cl)cc32)C[C@H]1C (single isomer, unassigned) [Example 1-8-1]",10 nM
10,"C=CC(=O)N1C[C@H](C)N(C2=NS(=O)(=O)N(c3c(N)ncnc3C(C)C)c3nc(-c4ccccc4F)c(Cl)cc32)C[C@H]1C (single isomer, unassigned) [Example 9-1]",170 nM
11,"C=CC(=O)N1C[C@H](C)N(C2=NS(=O)(=O)N(c3ccccc3C(C)(C)C)c3nc(-c4ccccc4F)c(Cl)cc32)C[C@H]1C [Example 1-1-1, 1-((2R,5S)-4-(6-chloro-7-(2-fluorophenyl)-1-(2-(2-methyl-2-propanyl)phenyl)-2,2-dioxido-1H-pyrido[2,3-c][1,2,6]thiadiazin-4-yl)-2,5-dimethyl-1-piperazinyl)-2-propen-1-one]",150 nM
12,"C=CC(=O)N1C[C@H](C)N(C2=NS(=O)(=O)N(c3c(C)ccnc3C(C)C)c3nc(-c4ccccc4C)c(Cl)cc32)C[C@H]1C (single isomer, unassigned) [Example 1-12-2]",3550 nM
13,"C=CC(=O)N1C[C@H](C)N(C2=NS(=O)(=O)N(c3c(C)cc(CN(C)C)cc3C(C)C)c3nc(-c4c(N)cccc4F)c(Cl)cc32)C[C@H]1C [Example 8-2, 1-((2R,5S)-4-(7-(2-amino-6-fluorophenyl)-6-chloro-1-(4-((dimethylamino)methyl)-2-methyl-6-(2-propanyl)phenyl)-2,2-dioxido-1H-pyrido[2,3-c][1,2,6]thiadiazin-4-yl)-2,5-dimethyl-1-piperazinyl)-2-propen-1-one]",1460 nM
14,C=CC(=O)N1C[C@H](C)N(C2=NS(=O)(=O)N(c3ccccc3C(C)(C)C)c3nc(-c4ccccc4S(C)(=O)=O)c(Cl)cc32)C[C@H]1C [Example 1-10],110 nM
15,"C=CC(=O)N1C[C@H](C)N(C2=NS(=O)(=O)N(c3c(N)ncnc3C(C)C)c3nc(-c4ccccc4F)c(Cl)cc32)C[C@H]1C (single isomer, unassigned) [Example 9-2]",11200 nM
16,"C=CC(=O)N1C[C@H](C)N(C2=NS(=O)(=O)N(c3ccc(CN(C)C)cc3C(C)(C)C)c3nc(-c4ccccc4F)c(Cl)cc32)C[C@H]1C [Example 1-13-1, 1-((2R,5S)-4-(6-chloro-1-(4-((dimethylamino)methyl)-2-(2-methyl-2-propanyl)phenyl)-7-(2-fluorophenyl)-2,2-dioxido-1H-pyrido[2,3-c][1,2,6]thiadiazin-4-yl)-2,5-dimethyl-1-piperazinyl)-2-propen-1-one]",40 nM
17,"C=CC(=O)N1C[C@H](C)N(C2=NS(=O)(=O)N(c3c(C)cc(N)nc3C(C)C)c3nc(-c4ccccc4F)c(Cl)cc32)C[C@H]1C (atropisomer, axis not shown) [Example 10-2, 1-((2R,5S)-4-(1-(6-amino-4-methyl-2-(2-propanyl)-3-pyridinyl)-6-chloro-7-(2-fluorophenyl)-2,2-dioxido-1H-pyrido[2,3-c][1,2,6]thiadiazin-4-yl)-2,5-dimethyl-1-piperazinyl)-2-propen-1-one]",390 nM
18,"C=CC(=O)N1C[C@H](C)N(C2=NS(=O)(=O)N(c3ccccc3C(C)(C)C)c3nc(-c4c(N)cccc4F)c(Cl)cc32)C[C@H]1C (single isomer, unassigned) [Example 1-8-2]",69300 nM
19,"C=CC(=O)N1CCN(C2=NS(=O)(=O)N(c3ccccc3CC(C)C)c3nc(-c4ccccc4F)c(Cl)cc32)[C@@H](C)C1 [Example 3-2, 1-((3S)-4-(6-chloro-7-(2-fluorophenyl)-1-(2-(2-methylpropyl)phenyl)-2,2-dioxido-1H-pyrido[2,3-c][1,2,6]thiadiazin-4-yl)-3-methyl-1-piperazinyl)-2-propen-1-one]",800 nM
20,"C=CC(=O)N1C[C@H](C)N(C2=NS(=O)(=O)N(c3c(C)ccnc3C(C)C)c3nc(-c4ccccc4C)c(Cl)cc32)C[C@H]1C [Example 1-12, 1-((2R,5S)-4-(6-chloro-7-(2-methylphenyl)-1-(4-methyl-2-(2-propanyl)-3-pyridinyl)-2,2-dioxido-1H-pyrido[2,3-c][1,2,6]thiadiazin-4-yl)-2,5-dimethyl-1-piperazinyl)-2-propen-1-one]",600 nM
21,"C=CC(=O)N1CCN(C2=NS(=O)(=O)N(c3ccccc3C(C)C)c3nc(-c4c(O)cccc4F)c(F)cc32)[C@@H](C)C1 [Example 5, 1-((3S)-4-(6-Fluoro-7-(2-fluoro-6-hydroxyphenyl)-1-(2-isopropylphenyl)-2,2-dioxido-1H-pyrido[2,3-c][1,2,6]thiadiazin-4-yl)-3-methylpiperazin-1-yl)prop-2-en-1-one]",1030 nM
22,"C=CC(=O)N1C[C@H](C)N(C2=NS(=O)(=O)N(c3c(C)cc(N)nc3C(C)C)c3nc(-c4ccccc4F)c(Cl)cc32)C[C@H]1C (atropisomer, axis not shown) [Example 10-1, 1-((2R,5S)-4-(1-(6-amino-4-methyl-2-(2-propanyl)-3-pyridinyl)-6-chloro-7-(2-fluorophenyl)-2,2-dioxido-1H-pyrido[2,3-c][1,2,6]thiadiazin-4-yl)-2,5-dimethyl-1-piperazinyl)-2-propen-1-one]",3500 nM
23,"C=CC(=O)N1C[C@H](C)N(C2=NS(=O)(=O)Nc3nc(-c4ccccc4F)c(Cl)cc32)C[C@H]1C [Example 7, 1-((2R,5S)-4-(6-Chloro-7-(2-fluorophenyl)-2,2-dioxido-1H-pyrido[2,3-c][1,2,6]thiadiazin-4-yl)-2,5-dimethyl-1-piperazinyl)-2-propen-1-one]",16400 nM
24,"C=CC(=O)N1C[C@H](C)N(C2=NS(=O)(=O)N(c3ccccc3C(C)(C)C)c3nc(-c4ccccc4S(C)(=O)=O)c(Cl)cc32)C[C@H]1C (atropisomer, axis not shown) [Example 1-10-1]",80 nM
